According to the NIST ThermoML archive (doi:10.1016/j.fluid.2013.09.056):
Numbers after ± are expanded uncertainties.

Conditions: Liquid, Closed cell (Static) method

| Compound | vapor or sublimation pressure (283.15 K) | vapor or sublimation pressure (293.15 K) | vapor or sublimation pressure (303.15 K) | vapor or sublimation pressure (313.15 K) | vapor or sublimation pressure (323.15 K) |
| --- | --- | --- | --- | --- | --- |
| FC(C(F)(F)F)C(F)(F)F [1,1,1,2,3,3,3-heptafluoropropane] | 278.9 ± 7 kPa | 388 ± 7 kPa | 524.5 ± 7 kPa | 699 ± 7.1 kPa | 912.4 ± 7.1 kPa |
| FCC(F)(F)F [1,1,1,2-tetrafluoroethane] | 414 ± 7 kPa | 571.5 ± 7 kPa | 767 ± 7.1 kPa | 1013 ± 7.2 kPa | 1314.7 ± 7.3 kPa |
| CC(F)(F)F [1,1,1-trifluoroethane] | 838.6 ± 7.1 kPa | 1107.9 ± 7.2 kPa | 1435.2 ± 7.3 kPa | 1834 ± 7.5 kPa | 2309.7 ± 7.8 kPa |
| C=C(F)C(F)(F)F [2,3,3,3-tetrafluoro-1-propene] | 436.5 ± 7 kPa | 591 ± 7.1 kPa | 780.5 ± 7.1 kPa | 1015.6 ± 7.2 kPa | 1300.7 ± 7.2 kPa |
